# Key:
# [1] = target: human Adenosine A2b receptor (Homo sapiens (Human), UniProt P29275); assay: Adenosine receptor TR-FRET binding assay (A2b); conditions: TR-FRET, inhibition of binding of 30 nM CA200645, CHO cell membranes
# Summary of the method: (§1)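 CHO cell membranes carrying terbium-tagged human A1, A2a, A2b or A3 receptors were incubated 2 h at room temperature with compound and CA200645 tracer (A2b 30 nM; others 100 nM). Specific binding from time-resolved FRET ratios, minus 10 μM XAC background; IC50 converted to Ki (Cheng–Prusoff).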
# [2] = target: human Adenosine A1 receptor (Homo sapiens (Human), UniProt P30542); assay: Adenosine receptor TR-FRET binding assay (A1); conditions: inhibition of binding of 100 nM CA200645, CHO cell membranes
# Summary of the method: as §1
# [3] = target: human Adenosine A2a receptor (Homo sapiens (Human), UniProt P29274); assay: Adenosine receptor TR-FRET binding assay (A2a); conditions: inhibition of binding of 100 nM CA200645, CHO cell membranes
# Summary of the method: as §1
# [4] = system: CD8+T cells in human whole blood; assay: Measurement of pCREB in CD8+T cells in human whole blood; assay type: cell-based; conditions: 3 μM NECA, rolipram
# Description: Biological Example—Measurement of pCREB in CD8+T Cells in Human Whole Blood
# Heparinised human whole blood was pre-incubated at 37° C. with serial dilutions of A2a antagonists for 20 min. and the phosphodiesterase inhibitor rolipram to amplify the pCREB response. The adenosine receptor agonist NECA is then added at a final concentration of 3 μM and following a 60 min incubation the blood is fixed and red blood cells lysed. White blood cells are isolated, permeabilized and stained with directly conjugated fluorescent antibodies to phospho-CREB (Alexa Fluor 488) and CD8 (Alexa Fluor 647) and the level of phospho-CREB in CD8+T cells is measured by FACS using a BD Accuri C6 Flow Cytometer.
# human PBMCs = assay: CD3/CD28 stimulated IL-2 release NECA reversal assay in human PBMCs; assay type: cell-based; conditions: PBMC, 1 uM NECA, 24 hours, IL-2 in culture supernatant
# Description: Biological Example—CD3/CD28 Stimulated IL-2 Release NECA Reversal Assay in Human PBMCs
# Blood is drawn from healthy volunteers using sodium citrate as the anticoagulant (0.3% final concentration). After centrifugation of the blood over Histopaque-1077, PBMCs are collected from the Histopaque/plasma interface and washed twice in PBS (300 g for 10 mins at room temp). Cells are plated at 50,000 cells/well in 150 μl RPMI/10% FCS in 96-well cell culture plates that have been precoated with 1 ug/ml CD3 antibody. 50 μl diluted compound mix is added to the cells, to obtain final concentrations of 1 ug/ml CD28 antibody, 1 uM NECA and 0.003-10 μM adenosine receptor antagonist. Assay plates are incubated for 24 hours at 37° C. in a humidified incubator. Culture supernatant is tested for IL-2 levels using the human IL-2 Tissue Culture Kit (Meso Scale Discovery). Data for dose-response curves is calculated as % inhibition with 100% inhibition defined from no agonist control wells (+CD3/28-NECA)
# [5] = target: human Adenosine A3 receptor (Homo sapiens (Human), UniProt P0DMS8); assay: Adenosine receptor TR-FRET binding assay (A3); conditions: inhibition of binding of 100 nM CA200645, CHO cell membranes
# Summary of the method: as §1
# Chain of human Adenosine A3 receptor (P0DMS8 whole entry): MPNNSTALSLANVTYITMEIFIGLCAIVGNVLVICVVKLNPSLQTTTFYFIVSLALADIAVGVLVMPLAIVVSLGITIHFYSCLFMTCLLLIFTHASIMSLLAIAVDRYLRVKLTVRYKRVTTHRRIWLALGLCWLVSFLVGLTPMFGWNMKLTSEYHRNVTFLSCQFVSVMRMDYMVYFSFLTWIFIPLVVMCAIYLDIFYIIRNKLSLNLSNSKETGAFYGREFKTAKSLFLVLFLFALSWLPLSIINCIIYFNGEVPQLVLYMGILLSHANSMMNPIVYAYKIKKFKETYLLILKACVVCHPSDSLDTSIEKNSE
# Chain of human Adenosine A2b receptor (P29275 whole entry): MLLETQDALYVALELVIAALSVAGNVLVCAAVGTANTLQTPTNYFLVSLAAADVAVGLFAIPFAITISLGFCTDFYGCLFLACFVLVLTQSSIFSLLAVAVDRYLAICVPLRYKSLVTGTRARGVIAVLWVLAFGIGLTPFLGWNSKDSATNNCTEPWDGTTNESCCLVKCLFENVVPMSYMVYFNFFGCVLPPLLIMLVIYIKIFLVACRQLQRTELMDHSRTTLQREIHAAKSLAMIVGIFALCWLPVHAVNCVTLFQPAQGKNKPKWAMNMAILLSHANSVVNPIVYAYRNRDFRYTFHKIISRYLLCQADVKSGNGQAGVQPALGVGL
# Chain of human Adenosine A2a receptor (P29274 whole entry): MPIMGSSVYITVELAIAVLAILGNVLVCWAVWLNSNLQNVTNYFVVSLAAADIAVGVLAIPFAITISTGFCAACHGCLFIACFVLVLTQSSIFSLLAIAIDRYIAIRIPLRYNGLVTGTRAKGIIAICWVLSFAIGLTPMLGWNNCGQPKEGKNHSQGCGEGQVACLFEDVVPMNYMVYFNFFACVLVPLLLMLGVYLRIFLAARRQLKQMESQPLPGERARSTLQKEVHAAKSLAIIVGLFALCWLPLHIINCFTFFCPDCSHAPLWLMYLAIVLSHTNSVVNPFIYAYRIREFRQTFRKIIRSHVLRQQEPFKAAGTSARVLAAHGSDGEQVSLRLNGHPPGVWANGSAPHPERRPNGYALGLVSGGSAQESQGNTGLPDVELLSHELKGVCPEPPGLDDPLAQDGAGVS
# Chain of human Adenosine A1 receptor (P30542 whole entry): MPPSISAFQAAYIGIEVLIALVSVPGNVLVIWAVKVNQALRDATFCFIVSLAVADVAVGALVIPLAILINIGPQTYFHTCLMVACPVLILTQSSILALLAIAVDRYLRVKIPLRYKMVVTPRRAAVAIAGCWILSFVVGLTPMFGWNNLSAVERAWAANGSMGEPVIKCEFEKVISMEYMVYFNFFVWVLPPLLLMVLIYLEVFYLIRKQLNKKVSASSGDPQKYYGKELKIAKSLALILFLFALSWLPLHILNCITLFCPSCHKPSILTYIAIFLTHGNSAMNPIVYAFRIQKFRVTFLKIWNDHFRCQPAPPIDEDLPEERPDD
SMILES,Ki [1] [µM],Ki [2] [µM],Ki [3] [µM],IC50 [4] [µM],IC50 (human PBMCs) [µM],Ki [5] [µM]
"Cc1cc(-c2sc(NC(=O)N3CC4(COC4)C3)nc2-c2cccc(C#N)c2)cc([C@@H](C)O)n1 (single isomer, unassigned) [Example 12.3b, N-[4-(3-Cyanophenyl)-5-[2-[(1R)-1-hydroxyethyl]-6-methyl-4-pyridyl]thiazol-2-yl]-2-oxa-6-azaspiro[3.3]heptane-6-carboxamide or N-[4-(3-cyanophenyl)-5-[2-[(1S)-1-hydroxyethyl]-6-methyl-4-pyridyl]thiazol-2-yl]-2-oxa-6-azaspiro[3.3]heptane-6-carboxamide]",0.0012,0.019,0.00042,0.01,,
"Cc1cc(-c2sc(NC(=O)N3CCN4C(=O)OCC4C3)nc2-c2cccc(C#N)c2)cc(C)n1 (centres unmarked) [Example 6.13, N-[4-(3-Cyanophenyl)-5-(2,6-dimethyl-4-pyridyl)thiazol-2-yl]-3-oxo-5,6,8,8a-tetrahydro-1H-oxazolo[3,4-a]pyrazine-7-carboxamide]",0.0034,0.023,0.0004,0.14,0.0037,
"Cc1cc(-c2sc(NC(=O)N3CCC4(CC3)CNC(=O)N4C)nc2-c2cccc(C#N)c2)cc(C)n1 [Example 6.51, N-[4-(3-Cyanophenyl)-5-(2,6-dimethyl-4-pyridyl)thiazol-2-yl]-1-methyl-2-oxo-1,3,8-triazaspiro[4.5]decane-8-carboxamide]",,,,0.32,0.0061,
"Cc1cc(-c2sc(NC(=O)N3CC4(CCOCC4)C3)nc2-c2cccc(C#N)c2)cc(C)n1 [Example 6.54, N-[4-(3-Cyanophenyl)-5-(2,6-dimethyl-4-pyridyl)thiazol-2-yl]-7-oxa-2-azaspiro[3.5]nonane-2-carboxamide]",,,,0.14,0.0033,
"Cc1cc(-c2sc(NC(=O)N3CC4(CNC(=O)C4)C3)nc2-c2cccc(C#N)c2)cc(C)n1 [Example 6.55, N-[4-(3-Cyanophenyl)-5-(2,6-dimethyl-4-pyridyl)thiazol-2-yl]-6-oxo-2,7-diazaspiro[3.4]octane-2-carboxamide]",,,,0.01,0.0022,
"Cc1cc(-c2sc(NC(=O)N3CC4(CNC(=O)N4)C3)nc2-c2cccc(C#N)c2)cc(C)n1 [Example 6.57, N-[4-(3-Cyanophenyl)-5-(2,6-dimethyl-4-pyridyl)thiazol-2-yl]-6-oxo-2,5,7-triazaspiro[3.4]octane-2-carboxamide]",,,,0.06,0.0026,
"Cc1cc(-c2sc(NC(=O)N3CCC4(CCCC(=O)N4)CC3)nc2-c2cccc(C#N)c2)cc(C)n1 [Example 6.58, N-[4-(3-Cyanophenyl)-5-(2,6-dimethyl-4-pyridyl)thiazol-2-yl]-2-oxo-1,9-diazaspiro[5.5]undecane-9-carboxamide]",,,,0.36,0.0085,
"Cc1cc(-c2sc(NC(=O)N3CCC(C)(C#N)CC3)nc2-c2cccc(C#N)c2)c(F)c(C)n1 [Example 6.66, 4-Cyano-N-[4-(3-cyanophenyl)-5-(3-fluoro-2,6-dimethyl-4-pyridyl)thiazol-2-yl]-4-methyl-piperidine-1-carboxamide]",,,,0.3,0.0043,
"Cc1cc(-c2sc(NC(=O)N3CC(C)(O)C3)nc2-c2cccc(C#N)c2)c(F)c(C)n1 [Example 6.67, N-[4-(3-Cyanophenyl)-5-(3-fluoro-2,6-dimethyl-4-pyridyl)thiazol-2-yl]-3-hydroxy-3-methyl-azetidine-1-carboxamide]",,,,0.25,0.0106,
"Cc1cc(-c2sc(NC(=O)N3CC[C@H]3CO)nc2-c2cccc(C#N)c2)cc(C)n1 [Example 6.73, (2S)-N-[4-(3-Cyanophenyl)-5-(2,6-dimethyl-4-pyridyl)thiazol-2-yl]-2-(hydroxymethyl)azetidine-1-carboxamide]",,,,0.2,0.0135,
"Cc1cc(-c2sc(NC(=O)N3CCC(C)(O)CC3)nc2-c2cccc(C#N)c2)cc(C)n1 [Example 6.96, N-[4-(3-Cyanophenyl)-5-(2,6-dimethyl-4-pyridyl)thiazol-2-yl]-4-hydroxy-4-methyl-piperidine-1-carboxamide]",0.0018,0.01,0.00053,0.03,,0.502
"Cc1cc(-c2sc(NC(=O)N3CCN[C@H](C(F)(F)F)C3)nc2-c2cccc(C#N)c2)cc(C)n1 [Example 13.10, (3S)-N-[4-(3-Cyanophenyl)-5-(2,6-dimethyl-4-pyridyl)thiazol-2-yl]-3-(trifluoromethyl)piperazine-1-carboxamide]",0.0145,0.061,0.00456,,,0.573
"Cc1cc(-c2sc(NC(=O)N3CC4CCC(C3)N4)nc2-c2cccc(C#N)c2)cc(C)n1 [Example 13.11, N-[4-(3-Cyanophenyl)-5-(2,6-dimethyl-4-pyridyl)thiazol-2-yl]-3,8-diazabicyclo[3.2.1]octane-3-carboxamide]",0.0584,0.132,0.0129,,,0.226
"Cc1cc(-c2sc(NC(=O)N3CCN[C@@H](C(F)(F)F)C3)nc2-c2cccc(C#N)c2)cc(C)n1 [Example 13.13, (3R)-N-[4-(3-Cyanophenyl)-5-(2,6-dimethyl-4-pyridyl)thiazol-2-yl]-3-(trifluoromethyl)piperazine-1-carboxamide]",0.008,0.019,0.00048,0.11,,0.871
"Cc1cc(-c2sc(NC(=O)N3CCN[C@H](C)C3)nc2-c2cccc(C#N)c2)cc(C(F)(F)F)n1 [Example 14, (3R)—N-[4-(3-Cyanophenyl)-5-[2-methyl-6-(trifluoromethyl)-4-pyridyl]thiazol-2-yl]-3-methyl-piperazine-1-carboxamide]",0.0074,0.045,0.00271,,,0.047
"COc1cc(-c2sc(NC(=O)N3CCS(=N)(=O)CC3)nc2-c2cccc(C#N)c2)cc(C)n1 [Example 16, N-[4-(3-Cyanophenyl)-5-(2-methoxy-6-methyl-4-pyridyl)thiazol-2-yl]-1-imino-1-oxo-1,4-thiazinane-4-carboxamide]",0.0024,0.055,0.00271,,,0.334
Cc1cc(-c2sc(NC(=O)N3CC[S+]([O-])CC3)nc2-c2cccc(C#N)c2)cc(C(F)(F)F)n1 [Example 16.2],0.0014,0.016,0.00038,,,0.135
COc1cc(-c2sc(NC(=O)N3CC[S+]([O-])CC3)nc2-c2cccc(C#N)c2)cc(C)n1 [Example 16.3],0.0062,0.082,0.00571,,,0.383
Cc1cc(-c2sc(NC(=O)N3CC[S+]([O-])CC3)nc2-c2cccc(C#N)c2)cc(C#N)n1 [Example 16.5],0.0199,0.087,0.0119,,,0.325
Cc1cc(-c2sc(NC(=O)N3CC4(COC4)C3)nc2-c2cccc(C#N)c2)cc(C(C)C)n1 [Example 16.8],0.0011,0.006,0.00013,,,0.537
N#Cc1cccc(-c2nc(NC(=O)N3CC4(COC4)C3)sc2-c2cc(Cl)nc(Cl)c2)c1 [Example 16.10],0.0017,0.043,0.00057,,,0.254
"CC(=O)Nc1cc(-c2sc(NC(=O)N3CC4(COC4)C3)nc2-c2cccc(C#N)c2)cc(C)n1 [Example 19, N-[5-(2-Acetamido-6-methyl-4-pyridyl)-4-(3-cyanophenyl)thiazol-2-yl]-2-oxa-6-azaspiro[3.3]heptane-6-carboxamide]",0.0079,0.137,0.00186,0.29,,
"CC(=O)NCc1cc(-c2sc(NC(=O)N3CC4(COC4)C3)nc2-c2cccc(C#N)c2)cc(C)n1 [Example 20, N-[5-[2-(Acetamidomethyl)-6-methyl-4-pyridyl]-4-(3-cyanophenyl)thiazol-2-yl]-2-oxa-6-azaspiro[3.3]heptane-6-carboxamide]",0.0391,0.133,0.00685,,,2.54
"COC(C)c1cc(-c2sc(NC(=O)N3CC4(COC4)C3)nc2-c2cccc(C#N)c2)cc(C)n1 (centres unmarked) [Example 22, N-[4-(3-Cyanophenyl)-5-[2-(1-methoxyethyl)-6-methyl-4-pyridyl]thiazol-2-yl]-2-oxa-6-azaspiro[3.3]heptane-6-carboxamide]",0.0032,0.007,0.0002,,,2.06

# — patent publication US20230293517A1, “ANTAGONIST COMPOUNDS” (AdoRx Therapeutics Limited, priority 2020, published 2023)
